# Experimental data from patent US11958842B2, “Substituted phenazines and methods of treating cancer and bacterial diseases” (Adjutec Pharma AS, priority 2016, dated 2024).
# Like-named read-outs stand apart in the source and are kept apart here.
# Assays:
# [1] = Parallel artificial membrane permeability assay (PAMPA); conditions: for LogPeff: PAMPA, 50 μM in PBS, room temperature, five hours
# Description: The Corning Gentest™ pre-Coated parallel artificial membrane permeability assay PAMPA Plate System was from Cording Discovery Labware (Bedford, USA). The compounds were tested in room temperature at 50 μM using PBS as buffer. A total of 300 μl of the compound solution was added to each well of the donor plate, and 200 μl of PBS was added to the receiver filter plate. After incubation for five hours, 50 μl of the donor or acceptor well were injected into a reversed phase HPLC column (Kromasil 100-5 C18 150-4.6 mm, Akzo Nobel, Sweden) connected to a Merck-Hitachi LaChrome HPLC-system (VWR, WestChester, USA) with a L-7455 diode array detector. Mobile phase A was 0.05% aqueous TFA, and mobile phase B was acetonitrile. The flow rate was 1.6 ml/min and compounds eluted between 1 and 4.5 minutes was eluted during a 6.5 min gradient from 90:10% mobile phase A:B to 0:100% mobile phase A:B. The ratio of the compound concentrations in the donor and acceptor compartment was calculated after integration of the peaks at 285 nm. Peff was calculated as described in [Bennion B J, Be N A, McNerney M W, Lao V, Carlson E M, Valdez C A, et al. Predicting a Drug's Membrane Permeability: A Computational Model Validated With in Vitro Permeability Assay Data. The journal of physical chemistry B. 2017; 121(20):5228-37.]. Membrane permeability were classified by the range defined by Bennion et al., allowing for us to divide the compounds into four groups, compounds with high permeability (LogPeff>−5.33), intermediate permeability (LogPeff>−5.66 and <−5.33), low permeability (LogPeff>−6.14 and <−5.66) impermeable (LogPeff<−6.14).
# [2] = system: human acute myeloid leukemia cell line MOLM-13; assay: Cytotoxicity, WST-1 and nuclear morphology (Example 73); format: cell-based
# Description: (§1) All cell culturing media and serum were from Sigma-Aldrich (St. Louis, Mo., USA). Product Nos. are given in parentheses. The human acute myeloid leukemia cell line MOLM-13 was cultured in RPMI medium (R5886) enriched with […] (F7524) and 0.2 mM L-glutamine (G7513). The normal rat kidney epithelial (NRK) and the rat cardiomyoblast (H9c2) cells were cultured in DMEM medium (D6429) enriched with 10% fetal bovine serum (F7524). All cell lines were additionally supplemented with 100 IU/mL penicillin and […] (P0781). The cells were cultured in a humidified atmosphere either under 2% or 20% O2 at 37° C.
# (§2) All analogues were dissolved in DMSO (D5879, Sigma-Aldrich) at concentrations between 2.5 and 20 mM before testing. For cytotoxic testing, the MOLM-13 cells were seeded as 20,000 cells/well, while NRK and H9c2 cells were seeded as 5,000 cells/well in 96-well Microplates (#167008, Thermo Scientific™ Nunc™ MicroWell™) with 100 μL medium/well. The cells were exposed to various concentrations of iodinin or its analogues for 24 hrs before the cell proliferation reagent WST-1 was used to assess the viability, in accordance with the manufacturer's instructions (11644807001, Roche Diagnostics, Sigma-Aldrich). The cells were next fixed in 2% buffered formaldehyde (pH 7.4) with the DNA-specific dye Hoechst 33342 (Polysciences Inc.) and assessed for cell death by UV-microscopy based on nuclear morphology. The highest concentration of analogue corresponded to 1% of DMSO, which alone gave less than 7% cell death as judged by nuclear morphology.
# (§3) EC50 values were determined by analyses of WST-1 signal results as well as microscopic evaluation of cell death by four-parameter regression analyses using the SigmaPlot software (Systat Software inc. San Jose, Calif.):
# (§4) [formula] where Y is the response (WST-1 signal or percent apoptosis), min and max are minimum and maximum response, X is concentration of analogue, EC50 equals the point of inflection, i.e. the point that gives half of maximum response, and h is the Hill's slope of the curve. The two methods gave consistent response curves for each analogue. In the case of Tirapazamine, where its colour interfered with the WST-1 signal, only microscopic evaluation of Hoechst stained cells was used in order to calculate its EC50 values.
# [3] = system: Molm13 cells; assay: Anti-AML activity, WST-1 viability (Example 72); format: cell-based; conditions: Homo sapiens
# Description: Dry powder of analogs were dissolved in DMSO. IPC-18 rat AML cells (Lacaze, N. et al. Leuk. Res. 1983, 7, 145.) were cultured in DMEM medium (Sigma-Aldrich, St. Louis, Mo., USA) supplemented with 10% horse serum (Invitrogen, Carlsbad, Calif., USA), and antibiotics (50 U/mL of penicillin and 0.05 mg/mL streptomycin). Molm13 (Matsuo, Y. et al. Leukemia 1997, 11, 1469.) cells were cultured in RPMI supplemented with antibiotics (50 U/mL of penicillin and 0.05 mg/mL streptomycin) and 10% fetal bovine serum (FBS, Invitrogen, Carlsbad, Calif.) and kept in exponential growth before the experiments. Dilution series of iodinin analogs were added to medium and cell suspension added to reach a final cell concentration of 150 000 cells/ml in 0.1 mL in a 96 well tissue culture plate. […] The cells were incubated with the iodinin analogs for 22 h before WST-1 was added according to the manufacturers protocol, and the cells incubated further in 2 h. Mitochondrial conversion of WST-1 to its colored metabolite was measured by a plate reader at 450 nm, with 620 nm as the reference wavelength. The cells were next fixed by adding 4% buffered formaldehyde (PBS, pH 7.4, supplemented with 0.01 mg/mL Hoechst 33342 for nuclear visualization) to the cell suspension at 1:1 (v/v) ratio (final concentration of formaldehyde:[…]). The cells' nuclear and surface morphology were examined microscopically and results compared with the WST-1 viability assay. The results given in Table I are based on WST-1 data.
# [4] = system: normal rat kidney epithelial (NRK) cells; assay: Cytotoxicity, WST-1 and nuclear morphology (Example 73); format: cell-based; conditions: Rattus norvegicus
# Description: as §1, §2, §3, §4
# [5] = system: rat cardiomyoblast (H9c2) cells; assay: as above; format: cell-based; conditions: H9c2, 19% O2, 24 hours of incubation, read-out: EC50 (μM) H9c2 19% O2
# Description: as §1, §2, §3, §4
# [6] = system: hepG2; assay: Cytotoxicity (Example 73, Table 2); format: cell-based; conditions: Homo sapiens, HepG2, 24 h, read-out: EC50 (μM) hepG2
# [7] = Homo sapiens, MOLM-13, 2% O2, 24 hours of incubation, read-out: EC50 (μM) MOLM-13 2% O2
# [8] = Homo sapiens, MOLM-13, 19% O2, 24 hours of incubation, read-out: EC50 (μM) MOLM-13 19% O2
# [9] = Molm 13 cells, 20% O2, 24 h of incubation, WST-1, read-out: Molm 13 IC50 20% O2
# [10] = MOLM-13, 2% O2, 24 hours of incubation, read-out: EC50 (μM) MOLM-13 2% O2
# [11] = MOLM-13, 19% O2, 24 hours of incubation, read-out: EC50 (μM) MOLM-13 19% O2
# [12] = 24 h, read-out: EC50 (μM) NRK 2% O2, NRK, 2% O2, 24 hours of incubation
# [13] = 24 h, read-out: EC50 (μM) NRK 19% O2, NRK, 19% O2, 24 hours of incubation
Structure (SMILES),LogPeff [1],"EC50 [2, 7] [µM]","EC50 [2, 8] [µM]","EC50 [2, 10] [µM]","EC50 [2, 11] [µM]","EC50 [4, 12] [µM]","EC50 [4, 13] [µM]",EC50 [5] [µM],other results
"Oc1cccc2nc3c(O)cccc3nc12 [Example 1b, 1,6-dihydroxyphenazine]",−5.42,110 to 140,100 to 120,,,,,,Permeability ([1]; PAMPA class by ranges of Bennion et al.): Intermediate/high
"CCOC(=O)COc1cccc2c1[n+]([O-])c1cccc(O)c1[n+]2[O-] [Example 5c, 1-(2-(ethoxy)-2-oxoethoxy)-6-hydroxyphenazine 5,10-dioxide]",−4.70,0.49 ± 0.12,0.57 ± 0.06,,,,,,"IC50 ([3]; Molm 13 cells, 2% O2, 24 h of incubation, WST-1, read-out: Molm 13 IC50 2% O2): 0.65 µM; IC50 [3, 9]: 0.85 µM; EC50 ([4]; 2% O2, 24 hours of incubation, read-out: EC50 (μM) NRK 2% O2): 18 ± 1.5 µM; EC50 ([4]; 19% O2, 24 hours of incubation, read-out: EC50 (μM) NRK 19% O2): 11 ± 1.6 µM; EC50 ([5]; Rattus norvegicus): 15 ± 0.9 µM"
"O=C(O)COc1cccc2c1[n+]([O-])c1cccc(O)c1[n+]2[O-] [Example 7, 1-(carboxymethoxy)-6-hydroxyphenazine 5,10-dioxide]",−7.53,61 ± 4,54 ± 7,,,,,,
"CN1CCN(C(=O)Oc2cccc3c2[n+]([O-])c2cccc(O)c2[n+]3[O-])CC1 [Example 8a, 1-hydroxy-6-((4-methylpiperazine-1-carbonyl)oxy)phenazine 5,10-dioxide]",,,,1.4 ± 0.06,1.5 ± 0.16,59 ± 1.1,53 ± 2,100 ± 13,EC50 [6]: 30 µM
"Cc1cc2c(cc1C)[n+]([O-])c1c(OC(=O)N3CCN(C)CC3)cccc1[n+]2[O-] [Example 8d, 7,8-dimethyl-1-((4-methylpiperazine-1-carbonyl)oxy)phenazine 5,10-dioxide]",,,,0.54 ± 0.06,0.63 ± 0.05,13 ± 0.7,11 ± 1.5,9.4 ± 0.55,EC50 [6]: 105 µM
"CN(C)C(=O)Oc1cccc2c1[n+]([O-])c1ccccc1[n+]2[O-] [Example 8k, 1-((dimethylcarbamoyl)oxy)phenazine 5,10-dioxide]",,,,2.1 ± 0.16,1.3 ± 0.15,25 ± 0.6,19 ± 1.3,16 ± 2.6,"IC50 ([3]; MOLM-13, 24 h, read-out: Molm 13 IC50 20% O2): 0.32 µM"
"CCCCC(=O)Oc1cccc2c1[n+]([O-])c1cccc(OC(=O)CCCC)c1[n+]2[O-] [Example 16b, 1,6-bis(pentanoyloxy)phenazine 5,10-dioxide]",−8.66,22 ± 2.8,36 ± 0.1,,,,,,"IC50 [3, 9]: ~40 µM; EC50 ([5]; Rattus norvegicus): > 200 µM"
